Experimental data: patent US6544773B1, “Microbial process for degradation of PCBS in clophen A-50 using a novel marine microorganism, Pseudomonas CH07” (priority 2001, dated 2003)

Columns and labels:
Pseudomonas CH07 [1] = assay: Degradation of PCB congeners of Clophen A-50 by Pseudomonas CH07 in seawater nutrient broth, GC-ECD analysis; conditions: for Degradation Of PCBs: 40 hrs incubation with Pseudomonas CH07, versus control; for Conc. of PCBs in Test sol. (incubation) 40 hrs.: incubation with Pseudomonas CH07 for 40 hrs, Clophen A-50 100 ppm in seawater nutrient broth
Description: A defined seawater nutrient broth medium (code no. 088 from Himedia, Bombay) containing beef extract 3 g L^−1, peptic digest of animal tissue 5 g L^−1 was used. One liter of medium contained 500 ml seawater and 500 ml distilled water and the final pH was adjusted to 7 using 0.1 N NaOH. After autoclaving, the required amount of stock solution (10,000 ppm) of Clophen A-50 was added to the medium in sterile condition to achieve a final concentration of 100 ppm. Immediately after adding the stock PCBs solution, the hexane part of it was evaporated out by gently swirling the flask in sterile condition and sterile glycerol was added to the medium in a 1:1 ratio of stock solution:glycerol. 40 μl of 24 hold culture of Pseudomonas CH07 growths was added in two replicates of 20 ml of test (seawater nutrient broth+Clophen A-50) medium to seawater nutrient broth (without any addition of Clophen A-50). Controls in duplicate were also maintained without the addition of the organism at room temperature (ca. 28°±2° C.). Control and test cultures were maintained at room temperature for two days and at various predecided intervals of time, the samples was taken out aseptically and prepared for GC analysis. The details of the sample preparation is described below.
The PCBs were analyzed following the method described by Boon et al. The method was standardized in our laboratory using the PCBs standards obtained from Promochem, Germany as well as other analytical grade chemicals from E. Merck. The purity of the solvents was checked by Gas chromatography for each of the bottles. The different adsorbents, alumina, silica, were purified by soxhlet extraction with di-chloro-methane (HPLC grade) for about eight hours. The anhydrous Na2SO4 and the glass wool were also purified by Soxhlet extraction with HPLC grade di-chloro methane. The different steps of the analytical methods are illustrated below:
i. Aliquot of 1 ml sample was treated with 1 ml n-hexane (HPLC grade) thrice and thoroughly mixed by a vortex mixture for five minutes each time. The upper part of the solvent layer (solvent extract) was separated with the help of micropipette and transferred to a sterilized glass tube.
ii. Concentrate the solvent extract to 1 ml by evaporation with Snyder column evaporator on a water bath at 85° C.
iii. Purify of the solvent extract by alumina clean up using micro-column technique.
iv. Concentrate the solvent extract to 1 ml by evaporation with Snyder column evaporator on a water bath at 85° C.
v. Isolate PCBs from polar chlorinated compounds by eluting through micro-column of silica.
vi. Concentrate the PCBs fraction to 1 ml by evaporation with Snyder column evaporator on a water bath at 85° C.
vii. Analyze the aliquot by GC-ECD with reference to standard PCBs (individual congeners).
The samples were analyzed by gas chromatography (Varian GC-3380) coupled with an electron capture detector and an autosampler 8200. Capillary column VA-5 (30 m×0.25 mm) was employed with electron capture detector […] for peak detection. Argon with 5% methane was the carrier gas. A temperature program was used (table. 3). […] The experimental condition of the instrument is illustrated in the table-4. The analysis of PCBs was calibrated using the standards for individual congeners of PCBs obtained from Promochem, Germany. Using different dilutions of the stock solution of the standards carried out the calibration of each of the individual congeners. The linearity of the calibration curve was determined with a range of dilution of the mix-standards.

Pseudomonas CH07 [2] = assay: Taxonomical characteristics: growth of Pseudomonas CH07 on antibiotics; type: cell-based; parameters: key: −: negative response (no growth); +: positive response (slight or moderate growth); ++: very good response (good growth); conditions: Table 1, taxonomical tests

With `Clc1ccc(-c2ccc(Cl)c(Cl)c2Cl)cc1Cl` [CB-105, 2,3,3′,4,4′-Pentachloro] the “Degradation Of PCBs” value (Pseudomonas CH07 [1]) was 46.69%.

For `Clc1ccc(-c2cc(Cl)c(Cl)cc2Cl)cc1Cl` [CB-118, 2,3′,4,4′,5-Pentachloro], the “Degradation Of PCBs” value (Pseudomonas CH07 [1]) was 40.72%.

With `Clc1cc(Cl)c(-c2cc(Cl)c(Cl)c(Cl)c2Cl)cc1Cl` [CB-180, 2,2′,3,4,4′,5,5′-Heptachloro] the “Degradation Of PCBs” value (Pseudomonas CH07 [1]) was 61.33%.

In the case of `Clc1ccc(-c2c(Cl)c(Cl)c(Cl)c(Cl)c2Cl)c(Cl)c1` [CB-181, 2,2′,3,4,4′,5,6-Heptachloro], the “Degradation Of PCBs” value (Pseudomonas CH07 [1]) is reported as 100%.

With `Clc1cc(Cl)c(-c2ccc(Cl)c(Cl)c2)c(Cl)c1` [CB-119, 2,3′,4,4′,6-Pentachloro] the “Degradation Of PCBs” value (Pseudomonas CH07 [1]) was 19.66% and the “Conc. of PCBs in Test sol. (incubation) 40 hrs.” value (shortened to “Conc. of PCBs”) (Pseudomonas CH07 [1]) was 6.48 ng/mL.

With `Clc1c(Cl)c(Cl)c(-c2ccccc2)c(Cl)c1Cl` [CB-116, 2,3,4,5,6-Pentachloro] the “Degradation Of PCBs” value (Pseudomonas CH07 [1]) was 20.04% and the “Conc. of PCBs” value (Pseudomonas CH07 [1]) was 8.06 ng/mL.

In the case of `[H]/N=C(/N)N[C@H]1[C@H](O)[C@@H](O)[C@H](O[C@@H]2O[C@@H](C)[C@](O)(C=O)[C@H]2O[C@@H]2O[C@@H](CO)[C@H](O)[C@@H](O)[C@@H]2NC)[C@@H](N/C(N)=N\[H])[C@@H]1O` [Streptomycin], the “Growth on (Response)” value (Pseudomonas CH07 [2]) is reported as “++”.

For `Clc1ccc(Cl)c(-c2cc(Cl)c(Cl)c(Cl)c2Cl)c1` [CB-141, 2,2′,3,4,5,5′-Hexachloro], the “Degradation Of PCBs” value (Pseudomonas CH07 [1]) was 55.38%.

In the case of `Clc1cc(Cl)c(-c2ccc(Cl)c(Cl)c2Cl)cc1Cl` [CB-138, 2,2′,3,4,4′,5′-Hexachloro], the “Degradation Of PCBs” value (Pseudomonas CH07 [1]) is reported as 55.97%.

With `Clc1ccc(-c2cc(Cl)c(Cl)c(Cl)c2)cc1Cl` [CB-126, 3,3′,4,4′,5-Pentachloro] the “Degradation Of PCBs” value (Pseudomonas CH07 [1]) was 100% and the “Conc. of PCBs” value (Pseudomonas CH07 [1]) was 00.00 ng/mL.

With `CN(C)[C@@H]1C(O)=C(C(N)=O)C(=O)[C@@]2(O)C(O)=C3C(=O)c4c(O)ccc(Cl)c4[C@@H](O)[C@H]3C[C@@H]12` [Demechlocyclin] the “Growth on (Response)” value (Pseudomonas CH07 [2]) was “++”.

For `NC[C@H]1O[C@H](O[C@H]2[C@H](O)[C@@H](O[C@H]3O[C@H](CO)[C@@H](O)[C@H](N)[C@H]3O)[C@H](N)C[C@@H]2N)[C@H](O)[C@@H](O)[C@@H]1O` [Kanamycin], the “Growth on (Response)” value (Pseudomonas CH07 [2]) was “++”.

For `Clc1ccc(-c2ccc(Cl)c(Cl)c2)cc1Cl` [CB-77, 3,3′,4,4′-tetrachlorobiphenyl], the “Degradation Of PCBs” value (Pseudomonas CH07 [1]) was 24.25% and the “Conc. of PCBs” value (Pseudomonas CH07 [1]) was 40.42 ng/mL.

In the case of `Clc1cc(Cl)c(-c2cccc(Cl)c2Cl)cc1Cl` [CB-97, 2,2′,3′,4,5-Pentachloro], the “Degradation Of PCBs” value (Pseudomonas CH07 [1]) is reported as 19.69%.

`CN(C)[C@@H]1C(O)=C(C(N)=O)C(=O)[C@@]2(O)C(O)=C3C(=O)c4c(O)cccc4[C@@](C)(O)[C@H]3C[C@@H]12` [Tetracycline] was tested, and the “Growth on (Response)” value (Pseudomonas CH07 [2]) was “++”.

`Clc1ccc(Cl)c(-c2cc(Cl)c(Cl)cc2Cl)c1` [CB-101, 2,2′,4,5,5′-Pentachloro] was tested, and the “Degradation Of PCBs” value (Pseudomonas CH07 [1]) was 20.19%.

`Clc1ccc(Cl)c(-c2c(Cl)c(Cl)cc(Cl)c2Cl)c1` [CB-151, 2,2′,3,5,5′,6-Hexachloro] was tested, and the “Degradation Of PCBs” value (Pseudomonas CH07 [1]) was 37.32%.

In the case of `Clc1ccc(-c2ccc(Cl)c(Cl)c2Cl)c(Cl)c1Cl` [CB-128, 2,2′,3,3′,4,4′-Hexachloro], the “Degradation Of PCBs” value (Pseudomonas CH07 [1]) is reported as 64.33%.

In the case of Neomycin, the “Growth on (Response)” value (Pseudomonas CH07 [2]) is reported as “++”.
